{"source": "patent US20170037446A1", "about": "“METHOD FOR THE MICROBIOLOGICAL DETERMINATION OF TRACES OF A[…] LOW VOLUME BIOLOGICAL SAMPLES” (UNIVERSIDAD DE SANTIAGO DE CHILE, priority 2013, published 2017)", "test": "Pharmacokinetic study of minocycline in CSF of rats, quantified by the microbiological method with 4PL curve fit", "assay_type": "in vivo", "details": "normal Sprague-Dawley rats, intra CSF injection of 1 mg/mL MC solution", "procedure": "A curve representing the percentage of bacterial growth inhibition versus antibiotic concentration applied to each well was also obtained.. Subsequently, using a curve fit analysis called “Four Parameter Curve Logistic (4PL)”, the values of antibiotic concentrations in the biological sample were obtained.\nCerebrospinal fluid (CSF) collection: It was collected by transcutaneous cisternal magna puncture. Minocycline injections were performed by the same route.\nCurve fitting: Four Parameter Logistic Curve (4PL) analysis was applied to minocycline antibiotic obtained from FIG. 1:\nMinocycline (MC), an antibiotic belonging to the family of tetracyclines, was used to carry out pharmacokinetic studies of CSF in Sprague-Dawley rats. Briefly, normal rats were injected via intra CSF an MC solution of 1 mg/mL, for subsequent sampling of CSF at time zero, 1, 10 and 18 hours. […] At 18 hours it is still possible to detect a concentration of 69 ng/mL (FIG. 4).", "data": [{"smiles": "CN(C)c1ccc(O)c2c1C[C@H]1C[C@H]3[C@H](N(C)C)C(O)=C(C(N)=O)C(=O)[C@@]3(O)C(O)=C1C2=O", "note": "[Minocycline]", "values": [{"measurement": "detection of MC in CSF", "setting": "CSF sampled at time zero, 1, 10 and 18 hours", "value": "detected at all times"}, {"measurement": "concentration at 18 h", "setting": "rat, cerebrospinal fluid (CSF), other: intra CSF (transcutaneous cisternal magna puncture), CSF sampled at 18 hours (FIG. 4)", "value": 69, "unit": "ng/mL"}]}]}
